Measured values as given in patent US12390461B2, “Modulators of RAR-related orphan receptors (RORs)” (11949098 CANADA INC., priority 2018, dated 2025).

system: Th17 polarization of human peripheral blood mononuclear cells; experiment: Th17 polarization assay (IL-17A positive cells by flow cytometry); type: cell-based; conditions: PBMC, 10 nM compound, 48 hours, triplicates, average of 50% over the listed compounds, p<0.05, read-out: inhibition of the polarization of Th17 cells (percentage of IL17A positive cells relative to total CD4 T cells)
From the text: This assay measures the phenotypic effects of the compounds on the production of interleukin 17A (IL-17A). IL-17A genes are regulated by ROR response elements (ROREs). Compounds that bind to ROR (LBD) can inhibit the binding of RORγ to ROREs DNA site. Compounds can also reduce the effect of the binding which is enhanced by the binding of the co-activator protein.
Peripheral blood mononuclear cells were isolated by density gradient centrifugation. The principle of this method is that components of the blood have different densities and can be separated according to their relative density. […] This medium is denser than lymphocytes, monocytes, and platelets and they remain about it, but less dense than granulocytes and erythrocytes, which will drop below it. […] Four layers were form, each containing different cell types—the uppermost layer contain containing plasma was removed by pipetting. PBMCs layer and is a characteristically white and cloudy “blanket” was gently removed using a 10 ml pipette and added to warm medium or PBS (1:3) to wash off any remaining platelets and centrifuged at 400×g for 10 minutes. The pelleted cells were counted, and the percentage viability estimated using Trypan blue staining. Cells were frozen for long-term storage.
To preserve PBMCs at ultra-low temperatures in liquid nitrogen, dimethyl sulfoxide (DMSO) was used as a cryoprotectant to reduce the formation of ice crystals and prevent cell damage. To freeze, freshly isolated PBMCs are resuspended to 5×10^6 cells/mL in freezing medium containing 10% DMSO and 90% fetal bovine serum (FBS) and were placed inside a freezing container at −80° C. overnight to allow gradual and even cooling. The following day, samples were moved to a liquid nitrogen tank for long-term storage.
500 ml bottle of RPMI at 4° C. was opened in a biological safety cabinet. Half of the media was transferred to a 500 ml 0.22 um bottle top filter (with the vacuum turned off). 59 ml filtered heat inactivated fetal bovine serum (FBS), 6 ml penicillin-streptomycin solution (100×), 6.0 ml of L-glutamine (100×), 6.0 ml MEM non-essential amino acids 100×, 6.0 ml of sodium pyruvate were added and the volume was brought up to 500 ml by adding the RPMI. Culture media were stored in 4° C. and used for duration of two weeks.
PBMCs were thawed carefully to avoid loss of cell viability and functionality. Samples are removed from liquid nitrogen and placed on ice, after which they were thawed in a 37° C. water bath. Once there is a small crystal of ice left in the bottom on the tubes, 500 μL warm complete RPMI medium supplemented with 10% FBS, 1% penicillin-streptomycin, and L-glutamine was added dropwise. The cells were then transferred to Falcon tubes containing 10 mL warm medium and centrifuged for 10 minutes at 400×g to wash off the toxic DMSO. This wash step was repeated, and the cell pellet was then resuspended in medium to count as before. Once thawed, PBMCs was rested overnight to remove any apoptotic cell this increases viability and improves functionality and involves incubating the freshly thawed PBMCs in supplemented medium for approximately 18 hours. After this resting period, cells were washed to be used in culture.
Culture medium was changed every other day for the whole duration. Compounds were added to the polarized cells at day 12 for 48 hours. At measurement day, CD3/CD28 beads were removed and cells were treated with cell stimulation cocktail for 5 hours at the end of 48 hours incubation. Plates were centrifuged at 400×g for 10 minutes. Supernatant was collected for further testing and cells were resuspended in 1×PBS and washed twice at 400×g before staining for surface and intracellular markers.
The dye was used in 1:1000 concentration in 1×PBS. The cells were incubated in dye solution for 30 minutes in 4° C.

**Q.** For `CSc1ncc(Cl)c(C(=O)Nc2sc3c(c2C(=O)NCc2ccccc2)CCCC3)n1` [Compound 2, N-(3-(benzylcarbamoyl)-4,5,6,7-tetrahydrobenzo[b]thiophen-2-yl)-5-chloro-2-(methylthio)pyrimidine-4-carboxamide], which inhibition at 0.01 µM is on record?
**A.** 30 to 70%

**Q.** How did the inhibition at 0.01 µM turn out when `CSc1ncc(Cl)c(C(=O)Nc2sc3c(c2C(=O)NC2CCS(=O)(=O)C2)CCC(C)C3)n1` (stereo not drawn) [Compound 3, 5-chloro-N-(3-{[(1,1-dioxidotetrahydro-3-thienyl)amino]-carbonyl}-6-methyl-4,5,6,7-tetrahydro-1-benzothien-2-yl)-2-(methylthio)-4-pyrimidine-carboxamide] was run?
**A.** 30 to 70%

**Q.** Which inhibition at 0.01 µM does the source give for `CCC1CCc2c(sc(NC(=O)c3ccnn3C)c2C(=O)Nc2ccccc2C)C1` (stereo not drawn) [Compound 4, N-(6-ethyl-3-{[(2-methylphenyl)amino]carbonyl}-4,5,6,7-tetrahydro-1-benzothien-2-yl)-1-methyl-1H-pyrazole-5-carboxamide] here?
**A.** 30 to 70%

**Q.** Which inhibition at 0.01 µM does the source give for `CN1CCN(C(=O)c2c(NC(=O)c3ccccc3F)sc3c2CCC(C(C)(C)C)C3)CC1` (stereo not drawn) [Compound 5, N-{6-tert-butyl-3-[(4-methyl-1-piperazinyl)carbonyl]-4,5,6,7-tetrahydro-1-benzothien-2-yl}-2-fluorobenzamide] here?
**A.** 30 to 70%

**Q.** How did the inhibition at 0.01 µM turn out when `CC1CCc2c(sc(NC(=O)c3ccccc3F)c2C(=O)N2CCN(C)CC2)C1` (stereo not drawn) [Compound 6, 2-fluoro-N-{6-methyl-3-[(4-methyl-1-piperazinyl)carbonyl]-4,5,6,7-tetrahydro-1-benzothien-2-yl}benzamide] was run?
**A.** 30 to 70%

**Q.** With `O=C(NCc1ccccc1)c1c(NC(=O)C(F)(F)F)sc2c1CCCC2` [Compound 7, N-benzyl-2-[(trifluoroacetyl)amino]-4,5,6,7-tetrahydro-1-benzothiophene-3-carboxamide] as the compound, how does the inhibition at 0.01 µM read?
**A.** 30 to 70%

**Q.** Which inhibition at 0.01 µM does the source give for `Cc1ccnc(SCC(=O)Nc2sc3c(c2C(=O)NCc2ccccc2)CCCC3)n1` [Compound 8, N-benzyl-2-({[(4-methyl-2-pyrimidinyl)thio]acetyl}amino)-4,5,6,7-tetrahydro-1-benzothiophene-3-carboxamide] here?
**A.** 30 to 70%

**Q.** For `O=C(CN1CCCCC1)Nc1sc2c(c1C(=O)NCc1ccccc1)CCCC2` [Compound 9, N-benzyl-2-[(1-piperidinylacetyl)amino]-4,5,6,7-tetrahydro-1-benzothiophene-3-carboxamide], which inhibition at 0.01 µM is on record?
**A.** 30 to 70%

**Q.** `CN1CCN(CC(=O)Nc2sc3c(c2C(=O)NCc2ccccc2)CCCC3)CC1` [Compound 10, N-benzyl-2-{[(4-methyl-1-piperazinyl)acetyl]amino}-4,5,6,7-tetrahydro-1-benzothiophene-3-carboxamide] was tested. Which inhibition at 0.01 µM did it give?
**A.** 30 to 70%

**Q.** How did the inhibition at 0.01 µM turn out when `CC1CCN(CC(=O)Nc2sc3c(c2C(=O)NCc2ccccc2)CCCC3)CC1` [Compound 11, N-benzyl-2-{[(4-methyl-1-piperidinyl)acetyl]amino}-4,5,6,7-tetrahydro-1-benzothiophene-3-carboxamide] was run?
**A.** 30 to 70%

**Q.** `CC1CCCN1C(=O)c1c(NC(=O)c2cccnc2)sc2c1CCCC2` (stereo not drawn) [Compound 12, N-(3-(2-methylpyrrolidine-1-carbonyl)-4,5,6,7-tetrahydro-benzo[b]thiophen-2-yl)nicotinamide] was tested. Which inhibition at 0.01 µM did it give?
**A.** 30 to 70%

**Q.** Which inhibition at 0.01 µM does the source give for `C[C@@H]1CCN(C(=O)c2c(NC(=O)c3cccnc3)sc3c2CCCC3)[C@H](C)C1` [Compound 13, N-(3-((2R,4R)-2,4-dimethylpiperidine-1-carbonyl)-4,5,6,7-tetrahydrobenzo[b]thiophen-2-yl)nicotinamide] here?
**A.** 30 to 70%

**Q.** Which inhibition at 0.01 µM does the source give for `CCC1CCN(C(=O)c2c(NC(=O)c3cccnc3)sc3c2CCCC3)C1` (stereo not drawn) [Compound 15, N-(3-(3-ethylpyrrolidine-1-carbonyl)-4,5,6,7-tetrahydro-benzo[b]thiophen-2-yl)nicotinamide] here?
**A.** 30 to 70%

**Q.** How did the inhibition at 0.01 µM turn out when `Cn1ccnc1SCC(=O)Nc1sc2c(c1C(=O)NCc1ccccc1)CCCC2` [Compound 16, N-benzyl-2-(2-((1-methyl-1H-imidazol-2-yl)thio)acetamido)-4,5,6,7-tetrahydrobenzo[b]thiophene-3-carboxamide] was run?
**A.** 30 to 70%

**Q.** For `Cn1cnc(CNC(=O)c2c(NC(=O)c3cccnc3)sc3c2CCCC3)n1` [Compound 19, N-(3-(((1-methyl-1H-1,2,4-triazol-3-yl)methyl)carbamoyl)-4,5,6,7-tetrahydrobenzo[b]thiophen-2-yl)nicotinamide], which inhibition at 0.01 µM is on record?
**A.** 30 to 70%

**Q.** How did the inhibition at 0.01 µM turn out when `C[C@@H](C#N)NC(=O)c1c(NC(=O)c2cccnc2)sc2c1CCCC2` [Compound 20, (S)—N-(3-((1-cyanoethyl)carbamoyl)-4,5,6,7-tetrahydro-benzo[b]thiophen-2-yl)nicotinamide] was run?
**A.** 30 to 70%

**Q.** For `O=C(Nc1sc2c(c1C(=O)c1ccccc1)CCCC2)c1cnccn1` [Compound 22, N-(3-benzoyl-4,5,6,7-tetrahydrobenzo[b]thiophen-2-yl)pyrazine-2-carboxamide], which inhibition at 0.01 µM is on record?
**A.** 30 to 70%

**Q.** Which inhibition at 0.01 µM does the source give for `Cc1cnc(S(C)(=O)=O)nc1C(=O)Nc1sc2c(c1C(=O)c1ccccc1)CCCC2` [Compound 23, N-(3-benzoyl-4,5,6,7-tetrahydrobenzo[b]thiophen-2-yl)-5-methyl-2-(methylsulfonyl)pyrimidine-4-carboxamide] here?
**A.** 30 to 70%
